These are literature values, as cited in patent publication US20240408115A1, “COMPOSITION AND METHODS OF TREATMENT USING […] - ENHANCED SUPPLEMENTATION” (Xygenyx Inc., priority 2023, published 2024).

Non-standard residues stand in square brackets, D forms with d. Residues, ends and D or L forms follow the SMILES beside them. Cit = NC(=O)NCCC[C@H](N)C(=O)O

The conditions of data set [1]: penetration enhancer for transdermal drugs.
Data set [2] deals with wide dynamic range neurons in the ventroposterolateral nucleus of the thalamus. The following applies: in vivo.
The conditions of data set [3]: in vivo.
The conditions of data set [4]: topical formulations, within four weeks of treatment.
The conditions of data set [5]: topical, concentrations 0.5-5%.
For data set [6] the following is noted: dietary supplementation, doses up to 400 IU/day.
The conditions of data set [7]: compared to α-tocopherol = 1.0.
The subject of data set [8] is F2-isoprostane. The following applies: large doses of 1600-3200 IU/day.
The conditions of data set [9]: dietary intake in equal portions.
For data set [10] the following is noted: in vivo. The source holds these as a separate data set.

Regarding `CC(C)[C@@H]1CC[C@@H](C)C[C@H]1O` [Menthol], the “increase of transdermal drug uptake (factor)” value in data set [1] is reported as at least 10.

As for `CCCCCc1cc(O)c2c(c1)OC(C)(C)C1CCC(C)=CC21` (stereo not drawn) [THC, Δ-9-tetrahydrocannabinol], the “potency in mediating pain relative to morphine” value in [2] is “ten times more powerful than morphine”.

Consider `CCNC(=O)CC[C@H](N)C(=O)O` [Theanine], for which the “dose considered safe and well-tolerated” value in data set [3] is “up to 400 mg per day”.

For `CC[C@H](C)[C@H](NC(=O)[C@H](CC(=O)O)NC(=O)[C@@H](N)CCCCN)C(=O)N[C@@H](CCCNC(N)=O)C(N)=O` [Tripeptide-10 citrulline] (H-KDI[Cit]-NH2), in [4], the improvement of suppleness is at most 54%. As to `C=CCCCCCCCCC(=O)N[C@@H](Cc1ccccc1)C(=O)O` [UP, Undecylenoyl phenylalanine], the “time to skin lightening effects” value in [5] is on record as at least 7 days. In the case of `CC12CCC(CC1)C(C)(C)O2` [eucalyptol, 1,8-epoxy-p-menthane], the “increase of transdermal drug uptake (factor)” value in data set [1] is given as “more than 10”.

Take `Cc1c(C)c2c(c(C)c1O)CC[C@@](C)(CCC[C@H](C)CCC[C@H](C)CCCC(C)C)O2` [α-tocopherol]: the “reduction of risk of coronary disease” value in [6] is “up to 34%”. In addition, in data set [6] (controlled trials), the “reduction of risk of developing neurodegenerative diseases such as Alzheimer's Syndrome or dementia” value is reported as at most 24%. The relative biological activity in [7] is recorded as 1.0. In [8], the “blood plasma concentration of F2-isoprostane” value is given as “significantly lower”. Turning to `Cc1cc(O)c(C)c2c1O[C@](C)(CCC[C@H](C)CCC[C@H](C)CCCC(C)C)CC2` [β-tocopherol], the relative biological activity in [7] is listed as 0.5.

As to `Cc1c(O)cc2c(c1C)O[C@](C)(CCC[C@H](C)CCC[C@H](C)CCCC(C)C)CC2` [γ-tocopherol], the “concentration in vivo relative to α-tocopherol” value in data set [9] is on record as “roughly 10%”. In addition, the relative biological activity in data set [7] was 0.1. As to `Cc1cc(O)cc2c1O[C@](C)(CCC[C@H](C)CCC[C@H](C)CCCC(C)C)CC2` [δ-tocopherol], in data set [7], the relative biological activity is 0.03.

Regarding “HGH: hormone comprising a peptide chain that is synthesized in the pituitary gland”, the biological half-life in [10] is given as 10-20 minutes.
